Measurements from paper PMC11811597, “Phenomics‐Based Discovery of Novel Orthosteric Choline Kinase Inhibitors” (Angewandte Chemie (International Ed. in English), 2025).

Assays:
[1] = target: T1, RBBP8NL (Homo sapiens, UniProt Q8NC74); assay: PISA thermal profiling, K562 cell lysates; type: binding; settings: K562 lysate, 30 µM, 15 min, n=3
T1 construct: endogenous in cells; host or cells: K562 cell lysate
Description: (§1) Experiments were performed as described earlier with few modifications. In short, 3 replicates of intact HepG2 cells were treated with 30 µM UNC0638, […] or corresponding volume of DMSO in medium-free experimental buffer for 60 min at 37 °C with end-over-end rotation. For lysates: Washed K562 cells were resuspended in medium-free experimental buffer and lysed by three freeze-thaw cycles. Lysate was centrifugated 20,000 × g for 20 min at 4 °C to remove cell debris. The cleared lysate was treated with 30 µM UNC0638, UNC0373 or corresponding volume of DMSO for 15 min at RT with end-over-end rotation. Each treated cell suspension or lysate was divided into 12 aliquots and subjected to a 12-step heat gradient from 44 °C to 64 °C. All the temperature points were pooled together to form […] individual samples. Soluble fraction was separated from precipitated proteins […]
(§2) by centrifugation at 30,000 × g for 20 min at 4 °C. The soluble fractions were collected to fresh tubes and further processed to be analysed with mass spectrometry. Sample handling, TMT labelling, LC-MS/MS analysis, protein identification and data analysis was performed as described earlier.[12] […]
(§3) Figure S3: Western blot of elution fractions after chemical pulldown with UNC0965 in MCF7 cell extract pre-incubated with indicated compounds (20 μM) or DMSO.
(§4) Figure S4: PISA thermal profiling results in K562 cell lysates. A) Volcano plots of UNC0638 and […]
(§5) Dashed lines represent amplitude > 0.05, < - 0.05 and log10(adjusted p-values) > 2 (two-sided two sample t-test, Benjamini-Hochberg corrected, n = 3).
(§6) 6,924 proteins were identified. B) UNC0737 stabilises CHKA stronger than UNC0638. […]

[2] = target: T2, R3HCC1L (Homo sapiens, UniProt Q7Z5L2); assay: PISA thermal profiling, K562 cell lysates; type: binding; settings: K562 lysate, 30 µM, 15 min, n=3
T2 construct: endogenous in cells; host or cells: K562 cell lysate
Description: as §1, §2, §3, §4, §5, §6

[3] = target: T3, HNRNPD (Homo sapiens, UniProt Q14103); assay: PISA thermal profiling, K562 cell lysates; type: binding; settings: K562 lysate, 30 µM, 15 min, n=3
T3 construct: endogenous in cells; host or cells: K562 cell lysate
Description: as §1, §2, §3, §4, §5, §6

[4] = tested on: primary human cell‐based tissue and disease models; assay: BioMAP Diversity PLUS panel; settings: for clustering of overall BioMAP responses across all biomarkers: 12 systems, Pearson's correlation >0.7; for IgG secretion, BioMAP PBMC panel: BioMAP B cell profiling
Description: Having confirmed that UNC0638 and UNC0737 are potent bona fide CHKA inhibitors, we next turned our attention to further investigate the role of CHKA in cellular signalling. While CHKA has been studied extensively in the context of malignant disease, there has been a growing acknowledgment of its relevance in immune metabolism.[9, 10] […] We profiled UNC0638 and UNC0737 alongside the orthogonal CHKA inhibitors V‐11‐0711 and ARIAD against the BioMAP Diversity PLUS panel (Figures S7).[24] This set comprises 148 distinct biomarkers across 12 systems, including panels for systemic immune responses. […] The decrease in IgG secretion was accompanied by a reduction in stimulation‐induced B cell maturation into CD27^+IgD^− memory CD19^+ B cells (Figure 4D). […]
consecutive concentrations change in the same direction relative to vehicle controls, are outside of the significance envelope, and have at least one concentration with an effect size > 20% (|log10ratio| > 0.1). Biomarker key activities are described as modulated if these activities increase in some systems, but decrease in others. Cytotoxicity is indicated on the profile plot by a thin black arrow above the x- […]
Cytotoxicity and antiproliferative arrows only require one concentration to meet the indicated threshold for profile annotation. […]

T1 sequence (Q8NC74 whole entry): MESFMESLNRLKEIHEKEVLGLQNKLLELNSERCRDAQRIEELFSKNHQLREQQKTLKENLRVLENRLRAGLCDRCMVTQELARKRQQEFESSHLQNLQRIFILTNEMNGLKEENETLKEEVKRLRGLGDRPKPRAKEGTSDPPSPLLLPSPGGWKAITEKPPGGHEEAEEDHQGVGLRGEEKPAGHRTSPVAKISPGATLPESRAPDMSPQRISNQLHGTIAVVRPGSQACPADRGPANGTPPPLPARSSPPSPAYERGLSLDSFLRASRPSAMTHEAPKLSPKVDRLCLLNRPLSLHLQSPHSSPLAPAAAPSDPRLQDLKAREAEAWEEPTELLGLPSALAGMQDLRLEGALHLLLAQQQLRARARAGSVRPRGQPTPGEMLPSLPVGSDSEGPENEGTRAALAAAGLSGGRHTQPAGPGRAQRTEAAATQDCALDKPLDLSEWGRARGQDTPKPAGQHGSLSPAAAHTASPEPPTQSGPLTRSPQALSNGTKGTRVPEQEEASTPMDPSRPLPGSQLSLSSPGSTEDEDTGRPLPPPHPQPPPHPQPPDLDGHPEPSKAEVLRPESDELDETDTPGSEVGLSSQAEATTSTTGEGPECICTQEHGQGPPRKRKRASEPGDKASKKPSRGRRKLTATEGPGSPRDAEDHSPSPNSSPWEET
T3 sequence (Q14103 whole entry): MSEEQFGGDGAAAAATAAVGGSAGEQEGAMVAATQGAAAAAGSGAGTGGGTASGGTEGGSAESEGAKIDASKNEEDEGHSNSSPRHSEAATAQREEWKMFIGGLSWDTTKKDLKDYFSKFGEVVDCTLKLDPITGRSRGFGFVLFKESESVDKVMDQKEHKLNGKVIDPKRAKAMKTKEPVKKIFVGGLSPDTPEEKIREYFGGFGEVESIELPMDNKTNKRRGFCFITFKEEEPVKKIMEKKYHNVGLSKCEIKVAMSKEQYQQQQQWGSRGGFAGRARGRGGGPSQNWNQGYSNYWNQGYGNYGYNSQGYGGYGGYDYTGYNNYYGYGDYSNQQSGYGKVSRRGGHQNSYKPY
T2 sequence (Q7Z5L2 1-184 isoform Q7Z5L2-3): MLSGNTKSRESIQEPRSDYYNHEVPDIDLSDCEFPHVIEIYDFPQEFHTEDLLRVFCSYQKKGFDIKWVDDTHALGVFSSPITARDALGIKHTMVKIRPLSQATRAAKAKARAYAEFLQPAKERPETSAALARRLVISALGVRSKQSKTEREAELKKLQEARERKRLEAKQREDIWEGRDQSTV

COc1cc2c(NC3CCN(C(C)C)CC3)nc(C3CCCCC3)nc2cc1OCCCN1CCCC1 [UNC0638]
effect_CETSA_Lysate (PISA amplitude), RBBP8NL [1]: 0.217
effect_CETSA_Lysate (PISA amplitude), R3HCC1L [2]: 0.239
effect_CETSA_Lysate (PISA amplitude), HNRNPD [3]: 0.387
clustering of overall BioMAP responses across all biomarkers [4]: clustered together with the known CHKA inhibitors
IgG secretion, BioMAP PBMC panel [4]: significant effects on IgG secretion

COc1cc2c(N(C)C3CCN(C(C)C)CC3)nc(C3CCCCC3)nc2cc1OCCCN1CCCC1 [UNC0737]
effect_CETSA_Lysate (PISA amplitude), RBBP8NL [1]: 0.393
effect_CETSA_Lysate (PISA amplitude), R3HCC1L [2]: 0.415
effect_CETSA_Lysate (PISA amplitude), HNRNPD [3]: 0.605
clustering of overall BioMAP responses across all biomarkers [4]: clustered together with the known CHKA inhibitors
IgG secretion, BioMAP PBMC panel [4]: significant effects on IgG secretion
